# In patent US12084472B2 (Ardelyx, Inc., priority 2015, dated 2024):
# Molecular target: T1, human TGR5 (Homo sapiens, UniProt Q8TDU6)
# T1 construct: expressed in transfected cells; host or cells: HEK293
# T1 sequence (Q8TDU6 1-330): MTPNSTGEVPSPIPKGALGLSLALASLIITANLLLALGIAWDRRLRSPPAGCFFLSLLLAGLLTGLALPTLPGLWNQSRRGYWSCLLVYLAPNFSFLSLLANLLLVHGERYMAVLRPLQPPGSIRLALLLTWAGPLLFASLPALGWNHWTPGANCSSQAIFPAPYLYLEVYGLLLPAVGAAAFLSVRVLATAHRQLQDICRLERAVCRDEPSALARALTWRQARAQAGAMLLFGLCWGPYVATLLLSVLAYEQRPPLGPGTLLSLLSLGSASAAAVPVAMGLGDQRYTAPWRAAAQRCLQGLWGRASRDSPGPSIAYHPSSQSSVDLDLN
# Experiment: Cell-based TGR5 assay (cAMP generation, HTRF)
# Details: HEK293 cells stably transfected with human TGR5; cAMP by HTRF; 30 minutes at 37° C.; read-out: pEC50 Human TGR5 (converted)
# Description: A primary cell-based assay utilized HEK293 cells stably transfected with a gene encoding human TGR5. Cells were treated with candidate TGR5 activators and assessed for increased intercellular levels of cAMP.
# TGR5-mediated cAMP generation was measured using a homogeneous time resolved fluorescence (HTRF) detection method (Cisbio). Test compounds were dissolved in DMSO to a final concentration of 10 mM. Serial 3-fold dilutions of the stock solution were made in DMSO, and these solutions were diluted 100-fold into Hanks Balanced Salt Solution supplemented with 10 mM HEPES pH 7.4, 0.003% Tween 20 and 0.5 mM isobutyl methylxanthine. Five microliters of diluted test compounds were added to wells of a black 384 well plate.
# Cells grown overnight at 37° C./5% CO2 were harvested and resuspended in Hanks Balanced Salt Solution containing 10 mM HEPES to a concentration of […]. Five microliters (2500 cells) were dispensed into each well of the 384 well plate containing compound dilutions and incubated at 37° C. for 30 minutes. Each compound was tested in duplicate at 12 concentrations ranging from 0.05 nM to 10 μM.
# Following incubation with test compounds, cAMP was detected through the successive addition of 5 μL each of cAMP labeled with the modified allophyocyanin dye d2 (cAMP-d2) and cryptate-labeled anti-cAMP in lysis buffer, and reading HTRF per the manufacturer's instructions.
# A standard curve was used to convert the raw HTRF data into [cAMP]. The concentration of cAMP was plotted against log [test compound] and the resulting curves were fit to a 3-parameter logistical equation using GraphPad Prism to determine pEC50 (the negative log of the EC50) and the magnitude of the response.
row,Structure (SMILES),EC50 [nM]
1,"CN(C[C@H](O)[C@@H](O)[C@H](O)[C@H](O)CO)C(=O)NCCCCCc1cc(Cl)c(CNC2(c3cnccc3-c3ccccc3OC3CC3)CC2)cc1Cl (stereo in doubt) [Compound I-163, 1-(5-{2,5-dichloro-4-[({1-[4-(2-cyclopropoxyphenyl)pyridin-3-yl]cyclopropyl}amino)methyl]phenyl}pentyl)-3-methyl-3-[(2S,3R,4R,5R)-2,3,4,5,6-pentahydroxyhexyl]urea]",< 100
2,"CN(CC(=O)O)C[C@H](NC(=O)CCCCc1cc(Cl)c(COC2(c3cnccc3-c3ccccc3OC3CC3)CC2)cc1Cl)[C@@H](O)[C@H](O)[C@H](O)CO (stereo in doubt) [Compound I-164, 2-{[(2S,3R,4S,5R)-2-{5-[2,5-dichloro-4-({1-[4-(2-cyclopropoxyphenyl)pyridin-3-yl]cyclopropoxy}methyl)phenyl]pentanamido}-3,4,5,6-tetrahydroxyhexyl](methyl)amino}acetic acid]",< 100
3,"O=C(CCN(CCC(=O)NC[C@H](O)[C@@H](O)[C@H](O)[C@H](O)CO)C(=O)CCCCc1cc(Cl)c(COC2(c3cnccc3-c3ccccc3OC3CC3)CC2)cc1Cl)NC[C@H](O)[C@@H](O)[C@H](O)[C@H](O)CO (stereo in doubt) [Compound I-168, 5-[2,5-dichloro-4-({1-[4-(2-cyclopropoxyphenyl)pyridin-3-yl]cyclopropoxy}methyl)phenyl]-N,N-bis(2-{[(2S,3R,4R,5R)-2,3,4,5,6-pentahydroxyhexyl]carbamoyl}ethyl)pentanamide]",< 100
4,"O=C(CCN(CCC(=O)NC[C@H](O)[C@@H](O)[C@H](O)[C@H](O)CO)C(=O)CCCCc1cc(Cl)c(CNC2(c3cnccc3-c3ccccc3OC3CC3)CC2)cc1Cl)NC[C@H](O)[C@@H](O)[C@H](O)[C@H](O)CO (stereo in doubt) [Compound I-170, 5-{2,5-dichloro-4-[({1-[4-(2-cyclopropoxyphenyl)pyridin-3-yl]cyclopropyl}amino)methyl]phenyl}-N,N-bis(2-{[(2S,3R,4R,5R)-2,3,4,5,6-pentahydroxyhexyl]carbamoyl}ethyl) pentanamide]",1260 to 10000

# Results, then the compound that gave them:
row,EC50 [nM],Structure (SMILES)
1,< 100,"Cc1cc(COC2(c3cnccc3-c3ccccc3OC3CC3)CC2)c(Cl)cc1CCCCNC(=O)[C@@H](O)[C@@H](O)[C@H](O)[C@@H](O)CO (stereo in doubt) [Compound I-172, (2S,3S,4R,5S)-N-{4-[5-chloro-4-({1-[4-(2-cyclopropoxyphenyl)pyridin-3-yl]cyclopropoxy)methyl)-2-methylphenyl]butyl}-2,3,4,5,6-pentahydroxyhexanamide]"
2,< 100,"O=C(O)[C@@H](O)[C@@H](O)[C@H](O)[C@@H](O)CNC1CCN(C(=O)CCCCc2cc(Cl)c(COC3(c4cnccc4-c4ccccc4OC4CC4)CC3)cc2Cl)CC1 (stereo in doubt) [Compound I-173, (2S,3S,4R,5S)-6-[(1-{5-[2,5-dichloro-4-({1-[4-(2-cyclopropoxyphenyl)pyridin-3-yl]cyclopropoxy}methyl)phenyl]pentanoyl}piperidin-4-yl)amino]-2,3,4,5-tetrahydroxyhexanoic acid]"
3,< 100,"Cc1cc(COC2(c3cnccc3-c3ccccc3OC3CC3)CC2)c(Cl)cc1CCCCNC(=O)[C@@H](O)[C@@H](O)[C@H](O)[C@@H](O)CN1CCOCC1 (stereo in doubt) [Compound I-176, (2S,3S,4R,5S)-N-{4-[5-chloro-4-({1-[4-(2-cyclopropoxyphenyl)pyridin-3-yl]cyclopropoxy}methyl)-2-methylphenyl]butyl}-2,3,4,5-tetrahydroxy-6-(morpholin-4-yl)hexanamide]"
4,< 100,"O=C(NCCCCc1cc(Cl)c(COC2(c3cnccc3-c3ccccc3OC3CC3)CC2)cc1Cl)[C@@H](O)[C@@H](O)[C@H](O)[C@@H](O)CN1CCOCC1 (stereo in doubt) [Compound I-179, (2S,3S,4R,5S)-N-{4-[2,5-dichloro-4-({1-[4-(2-cyclopropoxyphenyl)pyridin-3-yl]cyclopropoxy}methyl)phenyl]butyl}-2,3,4,5-tetrahydroxy-6-(morpholin-4-yl)hexanamide]"
